Entries after “also recorded” stand apart in the source; their conditions may differ.

Assay [1] concerns human cultured airway smooth muscle cells. As to the kind of experiment: DNA synthesis: [3H]-thymidine incorporation. Type of assay: cell-based. As to the method:
(§1) Human bronchial airway smooth muscle was obtained from macroscopically normal lung resection specimens from lung transplant donors or recipients provided by the Alfred Hospital (Melbourne). Cultures were prepared as previously described in detail (Tomlinson et al., 1994). Briefly, the tissue was partially digested in Dulbecco's Modified Eagle's Medium (DMEM), [supplemented with 2 mM L-glutamine, 100 μg/ml streptomycin, 100 U/ml penicillin-G, 2 μg/ml amphotericin B, and 0.25% w/v bovine serum albumin (BSA)] containing 3 mg/ml collagenase for 30 minutes at 37° C. and approximately 0.5 g smooth muscle was further digested by a 2 hour incubation in 0.5 mg/ml elastase, followed by an 18 hour incubation in collagenase (3 mg/ml) at 37° C. Cell suspensions ere centrifuged (10 min, 100×g, 25° C.), washed three times in supplemented DMEM, resuspended in 25 ml DMEM containing 10% (v/v) heat-inactivated foetal calf serum (FCS), seeded into 25 cm^2 Falcon culture flasks and incubated (37° C., 5% CO2) for 7 to 10 days until monolayer confluence was reached. Cells were then harvested weekly by 10 min exposure to 0.5% trypsin, 1 mM EDTA and passaged at a 1:3 split ratio into 75 cm^2 Falcon culture flaskes. Cells at passage numbers 3 to 15 were used for experiments.
(§2) Cells were subcultured into 24-well plates at a 1:3 ratio and allowed to grow to monolayer confluency over a 72-96 hour period in an atmosphere of 5% CO2 in air at 37° C. The serum-containing medium was replaced with serum-free DMEM for a 24 hour period to produce growth arrest. In some experiments, the cells were pretreated with 2-methoxyestradiol 30 min before the addition of mitogen. The stimulant (mitogen) was added to the appropriate wells together with a supplement containing insulin, transferrin, and selenium (Monomed A, 1% v/v). Monomed A was added to provide progression factors which are essential for the mitogenic activity of growth factors such as thrombin, epidermal growth factor (EGF) and basic fibroblast growth factor (bFGF) (Stewart et al., 1995a). Mitogens and inhibitors were left in contact with cells from the time of addition until the end of the experiment, unless indicated otherwise. Cells were incubated for 24 hours (37° C., 5% CO2) before being pulsed with [^3 H]-thymidine (1 μCi/ml for four hours) to measure incorporation of radiolabel into newly synthesized DNA, according to out previous study (Stewart et al., 1995). Incorporation of radioactivity was determined by filtration at the end of the pulse-labelling period. The medium containing the radioactivity was aspirated and the cells were lysed by addition of 200 μl of 0.1M NaOH. The DNA was immobilised by filtration in a binding harvester (Packard Filtermate 196) on glass fibre filters (Packard, standard), which were then washed with 3×3 ml volumes of distilled water and a single 1 ml volume of 100% ethanol. The dried filters were counted in a Packard Topcount liquid scintillation counter. Protein synthesis rates were determined in experiments of analogous design to those described above, but [^3 H]-leucine replaced [^3 H]-thymidine in the pulsing incubation of 4 hours. Furthermore, in experiments to determine the effects of mitogens and 2-methoxyestradiol on the rate of protein synthesis, incubations with mitogen were carried out for a period of 48 hours. The longer duration of these experiments was required to allow sufficient time for cell division to occur.
(§3) Each treatment in an individual experiment was carried out in quadruplicate for DNA and protein synthesis experiments. Each experiment was performed in at least three different cultures obtained from three different individuals. For cell counting, single incubations were carried out in three cultures. Results are presented as grouped data from multiple cultures and are expressed as mean ±S. E. of n cultures. The degree of increment was calculated by dividing the response of treated wells by that of the control wells on the same 24-well plate.
Background: Dividing cells build labelled thymidine or BrdU into new DNA.

The test system is the same in assay [2]. In words: Protein synthesis: [3H]-leucine incorporation. Type of assay: cell-based. The note with it: for [3H]-leucine incorporation: Table 5, unstimulated cells, mean. As to the method: as §1, §2, §3
The test system of assay [3] is cultured airway smooth muscle. The note with it: cited from earlier work; for mitogenic activity on airway smooth muscle: various species.
Assay [4] deals with human cultured airway smooth muscle cells. As to the kind of experiment: Protein synthesis: [3H]-leucine incorporation. The format is cell-based. To be noted: Table 5, unstimulated cells, mean.
The test system of assay [5] is airway smooth muscle cells. As to the kind of experiment: Morphological changes (cell rounding). Type of assay: cell-based, human.
Assay [6] has as its system endothelial cells and fibroblasts. To be noted: actively proliferating or non-quiescent; cited from earlier work.

With `NCCc1c[nH]c2ccc(O)cc12` [5HT, Serotonin, reference compound], the “incorporation of [3H]-thymidine by serotonin” value in assay [1] (5HT 0.1 nM up to 10 μM) is “no effect”. Further, the “incorporation of [3H]-leucine by serotonin” value in assay [2] (5HT 10 nM) was “increased incorporation of [^3 H]-leucine”.
Turning to EGF: epidermal growth factor, the “mitogenic activity on airway smooth muscle” value (from here on “mitogenic activity”) in assay [3] is recorded as “most effective proliferative agents”. For the same molecule, the “DNA synthesis ([3H]-thymidine incorporation) over unstimulated” value (“DNA synthesis … over unstimulated” below) in assay [1] (3 nM EGF, fold series) came out at 4.5±0.7.
Turning to “thrombin: thrombin (bovine plasma), mitogen”, the “mitogenic activity” value in assay [3] is on record as “effective growth factor”. In assay [1] (0.3 U/ml thrombin), the “DNA synthesis … over unstimulated” value amounted to 8.4±3.1 fold.
`C[C@@H]1C[C@H]2[C@@H]3CCC4=CC(=O)C=C[C@]4(C)[C@@]3(F)[C@@H](O)C[C@]2(C)[C@@]1(O)C(=O)CO` [dexamethasone]: the “effect on proliferation of cultured airway smooth muscle” value in assay [3] is on record as “anti-proliferative effect”.
With `C[C@]12CC[C@@H]3c4ccc(O)cc4CC[C@H]3[C@@H]1CC[C@@H]2O` [17β-estradiol, 1,3,5[10]-estratriene-3, 17β-diol, reference compound], in assay [1] (FCS 1%, 10 μM), the “FCS (1%)-stimulated DNA synthesis, 10 μM” value was “inhibition was observed at 10 μM”. For the same molecule, the “DNA synthesis in response to FCS (1%), 3 and 10 μM” value in assay [1] (FCS 1%) is given as “inhibited DNA synthesis”. Further, the “FCS (1%)-stimulated DNA synthesis, lower concentrations” value in assay [1] (FCS 1%) is given as “enhanced; also recorded: increased DNA synthesis”. For the same molecule, the “[3H]-leucine incorporation” value in assay [4] (concentration 1.0) worked out at 89 % control; in assay [4] (concentration 10.0), 100 % control; in assay [2] (concentration 0.3) it was 103 % control; in assay [2] (concentration 3.0) it was 87 % control.
`NCCc1c[nH]cn1` [histamine]: in assay [3], the “mitogenic activity” value is “completely inactive”.
Turning to `COc1cc2c(c(OC)c1OC)-c1ccc(OC)c(=O)cc1[C@@H](NC(C)=O)CC2` [colchicine, reference compound], in assay [5] (colchicine 0.1-10 μM), the shape changes entry is “similar”.
With `C[C@]12CC[C@@H]3c4cc(O)c(O)cc4CC[C@H]3[C@@H]1CC[C@@H]2O` [2-hydroxyestradiol, 1,3,5[10]-estratriene-2,3,17β-triol], the “DNA synthesis in response to FCS (1%), 3 and 10 μM” value in assay [1] (FCS 1%) was “inhibited DNA synthesis”. Further, the “FCS (1%)-stimulated DNA synthesis, lower concentrations” value in assay [1] (FCS 1%) is recorded as “increased DNA synthesis”. For the same molecule, the “[3H]-leucine incorporation” value came to 51 % control in assay [4] (concentration 10.0), 107 % control in assay [2] (concentration 0.3), 94 % control in assay [2] (concentration 1.0) and 56 % control in assay [2] (concentration 3.0).
As for `CC#C[C@]1(O)CC[C@H]2[C@@H]3CCC4=CC(=O)CCC4=C3[C@@H](c3ccc(N(C)C)cc3)C[C@@]21C` [RU 486, reference compound], the “effect on inhibition of DNA synthesis by 2-methoxyestradiol” value in assay [1] (RU 486 (1 μM), 2-methoxyestradiol 3 μM, FCS 1%) is given as “no effect”. Also, the “shape changes in response to colchicine or 2-methoxyestradiol” value in assay [5] (RU 486 as antagonist) is reported as “reduced the shape changes”.
Regarding heparin [reference compound], in assay [3], the “effect on proliferation of cultured airway smooth muscle” value is “inhibit proliferation of airway smooth muscle cells”. Moreover, the “proliferation of endothelial cells and fibroblasts” value in assay [6] is given as “enhance endothelial cell proliferation”.
As for endothelin-1, the “mitogenic activity” value in assay [3] is given as “only weakly active”.
As to `COc1cc2c(cc1O)CC[C@@H]1[C@@H]2CC[C@]2(C)C(=O)CC[C@@H]12` [2-methoxyestrone], the “concentration-response of enhancement of thrombin-stimulated DNA synthesis” value in assay [1] (thrombin) is “bell-shaped concentration-response curve”. For the same molecule, the “enhancement of thrombin-stimulated DNA synthesis, 10 μM” value in assay [1] (thrombin 0.3 U/ml, 10 μM) is on record as “level of enhancement declined at 10 μM”. Besides, the “thrombin-stimulated DNA synthesis (analogues)” value in assay [1] (thrombin 0.3 U/ml, up to 3 μM) is “enhanced thrombin-stimulated DNA synthesis”.
Turning to bFGF: human recombinant basic FGF, the “mitogenic activity” value in assay [3] is listed as “most effective proliferative agents”. Besides, the “DNA synthesis … over unstimulated” value in assay [1] (300 pM bFGF, fold series) came out at 22.5±5.3.
As to `CCCCC[C@H](O)/C=C/[C@@H]1[C@@H](C/C=C\CCCC(=O)O)[C@H]2CO[C@@H]1C2` [U46619], in assay [3], the “mitogenic activity” value is listed as “only weakly active”.

The values are drawn from patent US6200966A, “Compositions for inhibiting airway wall inflammation” (Amrad Operations Pty. Ltd., priority 1996, dated 2001).
